Laboratory results as given in US8092785B2, “Process for milling poorly soluble drugs in presence of liquid propellants” (Glaxo Group Limited, priority 2004, dated 2012).

How the values were obtained:
[1] = Physical form of milled, co-milled or spray dried product by XRPD; assay type: physicochemical
Protocol: Drug substance prepared according to the present invention maybe characterised by a series of physical analytical techniques well known to those skilled in the art for analysing physical form, for instance XPRD, polarised light microscopy (PLM), thermal analysis, FT-IR and laser diffraction particle sizing.
500 mg of drug or drug:polymer blend (PVP K30, PVP/VA 64 (BASF) and PVP/VA 37 (BASF)) (1:2 w/w) was ball milled in a mixer mill (MM2 Mixer mill, Glen Creston Ltd). The sample was milled at 17.5 1/sec in a 25 ml chamber for 120 minutes at 2% w/v with 2×12 mm diameter and 6×7 mm diameter stainless steel ball bearings.
500 mg of drug or drug:polymer blend (PVP K30) (1:2 w/w) was placed in a 25 ml milling chamber (2% w/v). Grinding media of 2×5 mm, 2×7 mm, 2×9 mm and 2×12 mm ball bearings were added. 10 g of 134a (Du Pont) was then added into the milling chamber via a valve. The sample was then milled for 2×20 minute periods at a frequency of 25 1/sec using a Retsch MM200 Mixer mill.
XPRD patterns of resultant products are shown as FIG. 1.1 to 1.4.
500 mg of drug and 1 g of polymer (1:2 w/w) was placed in a 25 ml measuring chamber. Grinding media of 2 mm Yttrium-Zirconium beads (equivalent volume 5 ml) were added. 12 ml of propellant 134a was then added into the milling chamber via a valve. The sample was then milled for 30 minutes at a frequency of 25 1/sec using a Retsch MM200 Mixer mill.
Drug (2 g) and polymer (3 g) were dissolved in approximately 200 ml of dimethyl formamide and spray dried at approximately 2 ml/min using a lab scale spray drier (Buchi B191, outlet temperature about 95° C.). The spray dried powders were then further dried at 65° C. under vacuum for 48 hrs. The dispersions were amorphous by XRPD.
Thus, the co-milling process has not compromised the physical form of compound A.

[2] = Particle size of milled product (SEM analysis / particle sizing); assay type: physicochemical
Protocol: Drug substance prepared according to the present invention maybe characterised by a series of physical analytical techniques well known to those skilled in the art for analysing physical form, for instance XPRD, polarised light microscopy (PLM), thermal analysis, FT-IR and laser diffraction particle sizing. 500 mg of drug or drug:polymer blend (PVP K30, PVP/VA 64 (BASF) and PVP/VA 37 (BASF)) (1:2 w/w) was ball milled in a mixer mill (MM2 Mixer mill, Glen Creston Ltd). The sample was milled at 17.5 1/sec in a 25 ml chamber for 120 minutes at 2% w/v with 2×12 mm diameter and 6×7 mm diameter stainless steel ball bearings. 500 mg of drug or drug:polymer blend (PVP K30) (1:2 w/w) was placed in a 25 ml milling chamber (2% w/v). Grinding media of 2×5 mm, 2×7 mm, 2×9 mm and 2×12 mm ball bearings were added. 10 g of 134a (Du Pont) was then added into the milling chamber via a valve. The sample was then milled for 2×20 minute periods at a frequency of 25 1/sec using a Retsch MM200 Mixer mill.

[3] = set-up: key: Those in class II have low solubility and high permeability; those in class IV have low solubility and low permeability; conditions: classified according to solubility and permeability (Amidon et al); cited from earlier work
[4] = Dissolution testing of ball milled and 134a ball milled products (USP II apparatus, sink conditions); assay type: physicochemical; conditions: neat drug ball milled in 134a, 37.5° C., 50 RPM
Protocol: The dissolution profiles of study compounds prepared by ball milling and 134a ball milling were measured according to the following method:
Dissolution testing was carried out under sink conditions using a VanKel USP II dissolution apparatus (fluid pump Model 17-2300, water bath VK750D, water bath stirrer VK7010). Dissolution testing was carried out at 37.5° C.+/−0.5° C. (Digitron Type K thermocouple thermometer). Vessels were stirred at 50 RPM. Samples underwent online UV analysis (Hewlett Packard 8453) at time points 0, 2, 5, 10, 15, 20, 30, 45 and 60 minutes. Samples were filtered with a 10 μm filters (Anachem). The pH 6.8 0.1M phosphate buffer^1 was degassed prior to commencement of the dissolution run (Copley Dissofill, model DSF2). Standard curves were prepared by dissolving drug in acetonitrile:water (1:1) for carbamazepine and glibenclamide or acetonitrile:pH 6.8 buffer (1:1) for dipyridamole and indomethacin. Drug concentration, UV cell path length, dissolution media and wavelength of detection were all compound specific. All analysis was carried out in triplicate. ^1 pH 6.8 buffer: 20 l prepared by addition of 10 l of Na2HPO4.2H2O 17.8 g/l to 10 l of NaH2PO4.H2O 13.8 g/l. pH was confirmed using a pH meter.

[5] = ball milling with propellant 134a, 2×20 minute
[6] = conventional ball milling, 120 minutes, no propellant
[7] = ball milling with 134a, compared to conventionally milled product

| physical form of product [1, 6] | particle size [2, 7] | particle size ([2]; conventional ball milling) | dissolution rate [4] | SMILES | physical form of product [1, 5] | Biopharmaceutics Classification system class [3] |
| --- | --- | --- | --- | --- | --- | --- |
| predominantly amorphous product | – | – | improved in dissolution rate | OCCN(CCO)c1nc(N2CCCCC2)c2nc(N(CCO)CCO)nc(N3CCCCC3)c2n1 [dipyridamole] | dipyridamole form II | II |
| amorphous product | significant decrease in particle size | – | – | COc1ccc(Cl)cc1C(=O)NCCc1ccc(S(=O)(=O)NC(=O)NC2CCCCC2)cc1 [glibenclamide] | remained in the same crystalline form as the starting material | II |
| predominantly amorphous product | significant decrease in particle size | – | – | COc1ccc2c(c1)c(CC(=O)O)c(C)n2C(=O)c1ccc(Cl)cc1 [indomethacin] | γ form | II |

| SMILES | physical form of product [1, 6] | particle size [2, 7] | particle size ([2]; conventional ball milling) | dissolution rate [4] | physical form of product [1, 5] | Biopharmaceutics Classification system class [3] |
| --- | --- | --- | --- | --- | --- | --- |
| NC(=O)N1c2ccccc2C=Cc2ccccc21 [carbamazepine, Carbamazepine] | conversion to a crystalline form, form III | significant decrease in particle size | no significant decrease in particle size | – | complete conversion to a crystalline form, form III | II |
